What was measured:
PC12 20.4 cells = assay: Cell survival of PC12 20.4 cells after TSA addition (phase contrast images); assay type: cell-based, rat; conditions: 3 μM TSA for 12 h
Experimental: As described in example 4, the PC12 cell line 20.4 expresses all components of the Cre-based reporter system in a completely functional manner. In order to test whether the cell line 20.4 can be utilized for application in the two-hybrid system (see FIG. 2), the known interaction partners described in example 3 were analyzed. Two days after cotransfection of the interaction partners G-ME2bHLH and V-ND, no GFP-positive cells were detectable (see FIG. 7, bottom left). After single transfections of G-ME2bHLH and V-ND, GFP-positive cells were likewise not detectable (see FIG. 7, central figures, left). […] Therefore, the same two-hybrid analysis was carried out in the following experiments, after transient addition of trichostatin A (3 μM, for 12 h, Sigma) (FIG. 8). […] After single transfections of G-ME2bHLH and V-ND, no GFP-positive cells were detectable (see FIG. 8, central figures, left). […] The TSA concentration with the best ratio of cell survival and nearly background-free detection of the interaction of G-ME2bHLH and V-ND, was […] for 12 h. […] Only after cotransfection of the interaction partners GBR2cc and V-GBR1cc, a multiplicity of GFP-positive cells were detected, after single transfection and cotransfection of the cc deletion mutants, GBR2ccDel and V-GBR1ccDel, no GFP-positive cells were microscopically detectable (see FIG. 9, bottom bar).

[1] = system: interaction of G-ME2bHLH and V-ND in PC12 20.4 cells; assay: Cre recombinase-based two-hybrid system in PC12 cell line 20.4 with transient addition of TSA, GFP fluorescence; parameters: species or system rat; conditions: 3 μM TSA for 12 h; two days after transfection of G-ME2bHLH and V-ND; without TSA no GFP-positive cells
From the text: FIG. 8 depicts GFP-fluorescence and phase contrast images of the stable PC12 cell line #20.4 two days after transfection with GV, G-ME2bHLH, V-ND and G-ME2bHLH with V-ND, with addition of TSA. […] After cotransfection of the two-hybrid interaction partners V-ND and G-ME2bHLH, GFP fluorescence is likewise detectable under the TSA culturing conditions (bottom left). Under control conditions, transfection of V-ND or G-ME2bHLH, no GFP fluorescence is detectable (center left).
As described in example 4, the PC12 cell line 20.4 expresses all components of the Cre-based reporter system in a completely functional manner. In order to test whether the cell line 20.4 can be utilized for application in the two-hybrid system (see FIG. 2), the known interaction partners described in example 3 were analyzed. Two days after cotransfection of the interaction partners G-ME2bHLH and V-ND, no GFP-positive cells were detectable (see FIG. 7, bottom left). After single transfections of G-ME2bHLH and V-ND, GFP-positive cells were likewise not detectable (see FIG. 7, central figures, left). […] Only after cotransfection of the interaction partners GBR2cc and V-GBR1cc, a multiplicity of GFP-positive cells were detected, after single transfection and cotransfection of the cc deletion mutants, GBR2ccDel and V-GBR1ccDel, no GFP-positive cells were microscopically detectable (see FIG. 9, bottom bar).

Question: For CC(/C=C/C(=O)NO)=C\[C@@H](C)C(=O)c1ccc(N(C)C)cc1 [TSA, trichostatin A], which “number of surviving cells” value (PC12 20.4 cells) is on record?
Answer: Its value is “lower number of surviving cells”.

Question: What about the “GFP-positive cells detected after transient addition of TSA” value [1] of the same molecule?
Answer: Its value is “a multiplicity of GFP-positive cells were now detected”.

Reference: US8349619B2, “Method for detecting and analyzing protein interactions in-vivo” (Sygnis Bioscience GmbH & Co. KG, priority 2002, dated 2013)
